Assays:
Conditions in all cases: 1 µM; inhibitor
PKCnu = PKCnu (Homo sapiens, UniProt O94806)
BMPR1B = BMPR1B (Homo sapiens, UniProt O00238)
SLK = SLK (Homo sapiens, UniProt Q9H2G2)
LYN = LYN (Homo sapiens, UniProt P07948)
MARK2 = MARK2 (Homo sapiens, UniProt Q7KZI7)
ACK1 = ACK1 (Homo sapiens, UniProt Q07912)
PAK3 = PAK3 (Homo sapiens, UniProt O75914)
FGFR2 = FGFR2 (Homo sapiens, UniProt P21802)
SRPK2 = SRPK2 (Homo sapiens, UniProt P78362)
FGFR3 = FGFR3 (Homo sapiens, UniProt P22607)
TRKC = TRKC (Homo sapiens, UniProt Q16288)
SIK1 = SIK1 (Homo sapiens, UniProt P57059)
CLK3 = CLK3 (Homo sapiens, UniProt P49761)
MYLK2 = MYLK2 (Homo sapiens, UniProt Q9H1R3)
JAK1 = JAK1 (Homo sapiens, UniProt P23458)
MAP3K9 = MAP3K9 (Homo sapiens, UniProt P80192)
ERBB2 = ERBB2 (Homo sapiens, UniProt P04626)
CLK1 = CLK1 (Homo sapiens, UniProt P49759)
IKKa = IKKa (Homo sapiens, UniProt O15111)
TLK1 = TLK1 (Homo sapiens, UniProt Q9UKI8)
BTK = BTK (Homo sapiens, UniProt Q06187)
RPS6KA4 = RPS6KA4 (Homo sapiens, UniProt O75676)
TRKA = TRKA (Homo sapiens, UniProt P04629)
EEF2K = EEF2K (Homo sapiens, UniProt O00418)
CDK9/CycT1 = CDK9/CycT1 (Homo sapiens, UniProt P50750)
GSK3B = GSK3B (Homo sapiens, UniProt P49841)
GSG2 = GSG2 (Homo sapiens, UniProt Q8TF76)
BLK = BLK (Homo sapiens, UniProt P51451)
SGK1 = SGK1 (Homo sapiens, UniProt O00141)
CK1d = CK1d (Homo sapiens, UniProt P48730)
TSSK1 = TSSK1 (Homo sapiens, UniProt Q9BXA7)

Chain of CLK1 (P49759 whole entry): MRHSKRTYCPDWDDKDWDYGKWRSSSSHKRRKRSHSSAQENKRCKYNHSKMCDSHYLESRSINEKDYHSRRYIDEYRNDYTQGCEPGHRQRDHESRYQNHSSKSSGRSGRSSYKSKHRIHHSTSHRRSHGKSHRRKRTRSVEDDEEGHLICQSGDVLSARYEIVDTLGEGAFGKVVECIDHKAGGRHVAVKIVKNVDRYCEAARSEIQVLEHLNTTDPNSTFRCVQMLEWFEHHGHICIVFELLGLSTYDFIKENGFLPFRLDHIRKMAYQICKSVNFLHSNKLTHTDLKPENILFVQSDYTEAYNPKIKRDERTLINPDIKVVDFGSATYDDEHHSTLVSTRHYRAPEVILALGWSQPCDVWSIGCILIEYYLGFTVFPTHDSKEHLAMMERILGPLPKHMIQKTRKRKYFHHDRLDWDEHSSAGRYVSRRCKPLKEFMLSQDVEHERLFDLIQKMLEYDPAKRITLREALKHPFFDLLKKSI
Chain of SGK1 (O00141 whole entry): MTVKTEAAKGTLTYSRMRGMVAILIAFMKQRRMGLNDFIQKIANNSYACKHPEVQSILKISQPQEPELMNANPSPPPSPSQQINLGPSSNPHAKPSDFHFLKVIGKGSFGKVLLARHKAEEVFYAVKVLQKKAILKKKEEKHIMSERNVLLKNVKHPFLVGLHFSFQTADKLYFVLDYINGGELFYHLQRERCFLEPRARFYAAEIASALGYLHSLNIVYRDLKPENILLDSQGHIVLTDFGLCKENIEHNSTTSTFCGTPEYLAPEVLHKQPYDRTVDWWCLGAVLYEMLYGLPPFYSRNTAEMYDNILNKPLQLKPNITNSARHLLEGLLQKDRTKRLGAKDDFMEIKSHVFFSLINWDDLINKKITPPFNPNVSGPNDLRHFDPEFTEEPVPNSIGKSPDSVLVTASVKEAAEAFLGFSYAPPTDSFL
Chain of TRKC (Q16288 whole entry): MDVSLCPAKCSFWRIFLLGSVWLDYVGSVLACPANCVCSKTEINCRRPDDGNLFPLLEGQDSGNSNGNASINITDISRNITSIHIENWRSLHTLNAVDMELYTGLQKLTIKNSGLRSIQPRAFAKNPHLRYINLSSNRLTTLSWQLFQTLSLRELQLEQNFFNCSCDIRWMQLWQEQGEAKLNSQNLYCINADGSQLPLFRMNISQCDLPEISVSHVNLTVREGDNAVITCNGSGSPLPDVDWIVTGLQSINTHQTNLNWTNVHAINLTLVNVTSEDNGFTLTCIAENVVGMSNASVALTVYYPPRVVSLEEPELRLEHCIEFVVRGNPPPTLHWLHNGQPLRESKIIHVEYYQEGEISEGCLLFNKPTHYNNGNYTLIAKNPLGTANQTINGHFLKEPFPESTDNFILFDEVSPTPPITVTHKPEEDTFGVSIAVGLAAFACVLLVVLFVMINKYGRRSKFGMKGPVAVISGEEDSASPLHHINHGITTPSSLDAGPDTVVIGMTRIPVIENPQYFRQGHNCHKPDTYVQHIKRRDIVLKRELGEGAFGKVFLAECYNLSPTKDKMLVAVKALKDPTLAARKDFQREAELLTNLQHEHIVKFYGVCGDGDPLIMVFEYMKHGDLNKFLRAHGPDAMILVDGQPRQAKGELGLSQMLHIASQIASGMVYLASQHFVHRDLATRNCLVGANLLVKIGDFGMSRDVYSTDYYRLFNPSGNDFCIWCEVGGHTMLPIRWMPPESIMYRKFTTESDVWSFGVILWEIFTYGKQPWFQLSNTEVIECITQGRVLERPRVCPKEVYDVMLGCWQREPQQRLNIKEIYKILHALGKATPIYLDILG
Chain of JAK1 (P23458 whole entry): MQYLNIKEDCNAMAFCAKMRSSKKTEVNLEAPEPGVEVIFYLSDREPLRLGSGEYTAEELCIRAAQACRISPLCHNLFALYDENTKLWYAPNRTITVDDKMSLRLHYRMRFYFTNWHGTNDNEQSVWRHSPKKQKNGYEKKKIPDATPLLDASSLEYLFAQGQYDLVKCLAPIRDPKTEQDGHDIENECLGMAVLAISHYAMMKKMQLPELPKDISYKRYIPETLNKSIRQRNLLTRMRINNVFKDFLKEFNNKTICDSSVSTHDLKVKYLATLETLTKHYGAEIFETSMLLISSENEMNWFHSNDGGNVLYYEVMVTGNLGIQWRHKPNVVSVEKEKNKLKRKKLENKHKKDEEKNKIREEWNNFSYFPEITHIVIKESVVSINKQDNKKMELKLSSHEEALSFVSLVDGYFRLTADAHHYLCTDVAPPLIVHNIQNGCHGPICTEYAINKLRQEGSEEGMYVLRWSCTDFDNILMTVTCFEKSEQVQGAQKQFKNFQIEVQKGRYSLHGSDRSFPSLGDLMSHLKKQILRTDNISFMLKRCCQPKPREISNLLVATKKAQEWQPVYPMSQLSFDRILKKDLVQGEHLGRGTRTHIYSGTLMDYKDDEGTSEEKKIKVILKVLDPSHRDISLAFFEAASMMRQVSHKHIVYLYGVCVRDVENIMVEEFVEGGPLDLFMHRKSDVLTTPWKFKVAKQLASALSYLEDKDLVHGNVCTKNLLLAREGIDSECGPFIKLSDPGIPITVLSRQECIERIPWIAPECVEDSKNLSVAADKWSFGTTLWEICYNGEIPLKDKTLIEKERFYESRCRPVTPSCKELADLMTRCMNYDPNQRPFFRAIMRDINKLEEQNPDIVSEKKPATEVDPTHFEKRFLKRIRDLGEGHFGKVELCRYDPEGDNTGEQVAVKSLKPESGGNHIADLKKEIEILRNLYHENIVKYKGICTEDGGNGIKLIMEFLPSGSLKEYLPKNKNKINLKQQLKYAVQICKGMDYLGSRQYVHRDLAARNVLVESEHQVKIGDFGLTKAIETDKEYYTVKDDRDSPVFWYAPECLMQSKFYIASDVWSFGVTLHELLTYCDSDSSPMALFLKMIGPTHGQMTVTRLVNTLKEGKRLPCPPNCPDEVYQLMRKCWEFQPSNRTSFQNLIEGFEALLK
Chain of RPS6KA4 (O75676 whole entry): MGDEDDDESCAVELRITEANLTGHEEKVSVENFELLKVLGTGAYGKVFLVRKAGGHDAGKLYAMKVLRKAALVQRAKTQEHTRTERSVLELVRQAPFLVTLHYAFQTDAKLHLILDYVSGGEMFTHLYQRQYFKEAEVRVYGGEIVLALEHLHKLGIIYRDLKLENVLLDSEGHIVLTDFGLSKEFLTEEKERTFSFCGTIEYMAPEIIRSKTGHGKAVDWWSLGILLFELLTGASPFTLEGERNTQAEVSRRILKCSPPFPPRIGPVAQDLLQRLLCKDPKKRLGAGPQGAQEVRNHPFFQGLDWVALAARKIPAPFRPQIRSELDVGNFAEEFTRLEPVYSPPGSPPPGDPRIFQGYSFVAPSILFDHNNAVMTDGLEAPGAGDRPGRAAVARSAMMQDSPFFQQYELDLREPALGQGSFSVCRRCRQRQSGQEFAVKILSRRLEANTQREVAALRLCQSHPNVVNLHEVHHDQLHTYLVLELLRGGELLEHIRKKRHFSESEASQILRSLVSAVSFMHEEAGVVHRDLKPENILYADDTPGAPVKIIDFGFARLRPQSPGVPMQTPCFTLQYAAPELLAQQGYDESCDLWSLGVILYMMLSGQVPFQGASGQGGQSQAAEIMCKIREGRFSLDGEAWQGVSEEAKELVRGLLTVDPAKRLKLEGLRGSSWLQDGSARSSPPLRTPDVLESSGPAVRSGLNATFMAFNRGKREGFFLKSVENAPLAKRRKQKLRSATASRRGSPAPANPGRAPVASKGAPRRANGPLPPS
Chain of EEF2K (O00418 whole entry): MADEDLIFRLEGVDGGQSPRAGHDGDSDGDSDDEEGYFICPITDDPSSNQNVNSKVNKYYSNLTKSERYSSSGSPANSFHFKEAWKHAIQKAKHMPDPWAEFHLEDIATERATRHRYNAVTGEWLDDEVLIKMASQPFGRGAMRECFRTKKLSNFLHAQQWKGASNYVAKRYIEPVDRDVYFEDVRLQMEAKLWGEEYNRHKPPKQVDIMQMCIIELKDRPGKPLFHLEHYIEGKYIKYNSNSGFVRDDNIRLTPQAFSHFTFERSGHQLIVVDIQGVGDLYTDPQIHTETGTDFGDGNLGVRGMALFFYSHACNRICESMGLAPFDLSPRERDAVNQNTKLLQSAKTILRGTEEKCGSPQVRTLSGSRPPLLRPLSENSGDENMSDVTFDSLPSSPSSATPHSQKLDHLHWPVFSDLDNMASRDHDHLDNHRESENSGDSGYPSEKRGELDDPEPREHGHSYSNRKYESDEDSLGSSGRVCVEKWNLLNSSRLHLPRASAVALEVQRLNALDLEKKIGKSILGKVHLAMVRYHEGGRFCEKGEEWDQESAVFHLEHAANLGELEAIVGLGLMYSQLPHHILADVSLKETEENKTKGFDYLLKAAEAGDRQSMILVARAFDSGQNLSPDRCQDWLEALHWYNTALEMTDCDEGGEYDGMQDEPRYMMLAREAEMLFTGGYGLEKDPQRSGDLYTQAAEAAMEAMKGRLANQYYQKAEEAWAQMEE
Chain of LYN (P07948 whole entry): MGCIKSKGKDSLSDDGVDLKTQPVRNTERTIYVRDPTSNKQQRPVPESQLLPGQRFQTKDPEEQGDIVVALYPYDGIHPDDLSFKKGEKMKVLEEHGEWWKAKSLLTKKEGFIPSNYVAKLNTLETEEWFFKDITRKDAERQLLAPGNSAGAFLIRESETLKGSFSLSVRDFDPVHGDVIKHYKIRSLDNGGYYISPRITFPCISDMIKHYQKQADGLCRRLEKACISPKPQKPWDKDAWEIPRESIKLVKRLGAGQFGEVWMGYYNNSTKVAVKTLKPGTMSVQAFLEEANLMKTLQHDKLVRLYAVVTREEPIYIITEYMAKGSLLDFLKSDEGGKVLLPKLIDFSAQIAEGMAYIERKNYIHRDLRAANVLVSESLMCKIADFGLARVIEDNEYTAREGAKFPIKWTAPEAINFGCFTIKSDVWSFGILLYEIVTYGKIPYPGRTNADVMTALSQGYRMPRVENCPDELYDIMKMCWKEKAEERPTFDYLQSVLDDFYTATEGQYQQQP

## O=C1NCCCCCNc2nc(c3ccccc3n2)Nc2cc1[nH]n2 [21c, (Z)-3^1H-2,5,11-triaza-1(4,2)-quinazolina-3(3,5)-pyrazolacycloundecaphan-4-one]
PKCnu
  21c Remaining activity, percent of control [%]: 78.1%
BMPR1B
  21c Remaining activity, percent of control [%]: 80.1%
SLK
  21c Remaining activity, percent of control [%]: 61.9%
LYN
  21c Remaining activity, percent of control [%]: 139.3%
MARK2
  21c Remaining activity, percent of control [%]: 98.8%
ACK1
  21c Remaining activity, percent of control [%]: 79.8%
PAK3
  21c Remaining activity, percent of control [%]: 103.3%
FGFR2
  21c Remaining activity, percent of control [%]: 79.5%
SRPK2
  21c Remaining activity, percent of control [%]: 97.0%
FGFR3
  21c Remaining activity, percent of control [%]: 99.8%
TRKC
  21c Remaining activity, percent of control [%]: 102.0%
SIK1
  21c Remaining activity, percent of control [%]: 86.3%
CLK3
  21c Remaining activity, percent of control [%]: 88.6%
MYLK2
  21c Remaining activity, percent of control [%]: 79.0%
JAK1
  21c Remaining activity, percent of control [%]: 88.0%
MAP3K9
  21c Remaining activity, percent of control [%]: 95.7%
ERBB2
  21c Remaining activity, percent of control [%]: 94.1%
CLK1
  21c Remaining activity, percent of control [%]: 79.0%
IKKa
  21c Remaining activity, percent of control [%]: 80.7%
TLK1
  21c Remaining activity, percent of control [%]: 92.4%
BTK
  21c Remaining activity, percent of control [%]: 96.6%
RPS6KA4
  21c Remaining activity, percent of control [%]: 92.5%
TRKA
  21c Remaining activity, percent of control [%]: 90.8%
EEF2K
  21c Remaining activity, percent of control [%]: 114.2%
CDK9/CycT1
  21c Remaining activity, percent of control [%]: 85.7%
GSK3B
  21c Remaining activity, percent of control [%]: 81.4%
GSG2
  21c Remaining activity, percent of control [%]: 108.1%
BLK
  21c Remaining activity, percent of control [%]: 98.6%
SGK1
  21c Remaining activity, percent of control [%]: 90.0%
CK1d
  21c Remaining activity, percent of control [%]: 98.8%
TSSK1
  21c Remaining activity, percent of control [%]: 95.8%

Reference: paper doi:10.1101/2023.10.20.563248v1 (biorxiv, 2023)
